Assay results taken from patent publication US9198909B1, “Materials and methods for inhibiting mamalian S-nitrosoglutathione reductase” (Indiana University Research and Technology Corporation, priority 2007, dated 2015).

Experiments:
RAW 264.7 cells [1] = experiment: cGMP accumulation in RAW 264.7 cells; format: cell-based, rat; details: 50 μM GSNO, 10 minutes
Procedure: cGMP plays key roles in vascular biology. To test whether inhibition of GSNOR increases cGMP production, RAW 264.7 cells were incubated with 50 μM GSNO±, both with and without compound 8, one of the subject GSNOR inhibitors of this invention. Next the amount of cGMP accumulation after 10 minutes was measured. Referring now to FIG. 6, GSNO activates soluble Guanylate Cyclase as previously described (Mayer et al J Biol Chem, Vol. 273, Issue 6, 3264-3270, Feb. 6, 1998). Compound 8 (GSNORi in the figure) potentiates the effect of GSNO by 2.5 fold.
Referring now to FIG. 6, RAW 264.7 cells were incubated with 50 μM GSNO±compound 8 the subject GSNOR inhibitor of this invention and then measured the amount of cGMP accumulation after 10 minutes. As shown in the figure GSNO activates soluble Guanylate Cyclase as previously described (Mayer et al J Biol Chem, Vol. 273, Issue 6, 3264-3270, Feb. 6, 1998). One mechanism by which compound 8 exerts its biochemical effects is due to its inhibition of GSNOR, which then potentiates the effects of GSNO on cGMP production resulting in higher cGMP levels.

GSNOR [2] = molecular target: T1, GSNOR (Homo sapiens, UniProt P11766); experiment: Dead-end inhibition studies of GSNOR; format: biochemical; design: made in house; host or cells: E. coli; details: pH 7.5, 25° C., GSNO held at 10 μM
T1 sequence (P11766 2-374 limits assumed): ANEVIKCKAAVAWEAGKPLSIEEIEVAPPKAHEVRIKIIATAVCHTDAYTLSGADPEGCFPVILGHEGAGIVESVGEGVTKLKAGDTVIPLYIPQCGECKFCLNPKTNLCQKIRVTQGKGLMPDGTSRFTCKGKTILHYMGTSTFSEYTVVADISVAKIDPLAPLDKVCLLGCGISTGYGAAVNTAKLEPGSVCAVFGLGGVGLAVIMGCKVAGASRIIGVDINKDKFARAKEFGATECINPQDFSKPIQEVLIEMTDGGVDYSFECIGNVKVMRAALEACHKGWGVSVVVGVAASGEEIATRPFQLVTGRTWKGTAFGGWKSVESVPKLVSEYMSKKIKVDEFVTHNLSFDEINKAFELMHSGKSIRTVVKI
Procedure: Referring now to Table 3, inhibition experiments were performed at 25° C. in 50 mM potassium phosphate (pH 7.5) including 0.1 mM EDTA. A minimum of five concentrations of the varied substrate and three inhibitor concentrations were used for each experiment. NADH and GSNO concentrations were held at 15 or 10 μM, respectively when present as a constant substrate in the assay. The Kis and Kii values are respectively the slope and intercept inhibition constants and are listed along with their associated standard errors. All data were fit to a competitive (C), noncompetitive (NC), or uncompetitive (UC) inhibition models. The type of inhibition shown in the table represents the best fit of the data to the given model as judged from F statistics analysis. […] The dissociation constant was measured at 25° C. in 50 mM potassium phosphate pH 7.5. Each KD value is an average of three independent experiments and is shown with the associated standard error.
Inhibition experiments with the GSNOR inhibitors were conducted at 25° C. in 3 ml of 50 mM potassium phosphate (pH 7.5) containing 0.1 mM EDTA. […] A minimum of three inhibitor concentrations were used in these assays and the rate of NADH and GSNO consumption was determined spectrophotometrically by following change in absorbance at 340 nm. […]

RAW 264.7 cells [3] = experiment: s-Nitrosothiol accumulation in RAW 264.7 cells, biotin switch assay; format: cell-based, rat
Procedure: Referring now to FIG. 4, RAW 264.7 cells were cultured in DMEM containing 10% heat-inactivated serum. Cells were treated with 33 μM of Compound 8 for 0, 2, 4, 8, or 24 h alone or in combination with 1 mM NAME for 4 h (lane 4+N). At indicated times, the cells were quenched and the lysate was analyzed for s-nitrosothiol content by the biotin switch assay.
RAW 264.7 cells were cultured in 10% heat-inactivated serum containing DMEM. Cells were treated with 33 micromolar compound 8 for varied lengths of time alone or in combination with 1 mM NAME for 4 h (4+N). […] Briefly, free sulfydryls in ˜200 μg of cell lysate were blocked with 20 mM MMTS in 1 ml of HEN buffer (250 mM HEPES pH 7.7 containing 1 mM EDTA and 0.1 mM Neocupronine) containing 2% SDS at 50° C. for 20 min. Free MMTS was removed by gel-filtration spin columns and the blocked proteins were labeled with 1 mM Biotin-HPDP (Pierce) in presence or absence of 30 mM ascorbate and 2 μM CuCl for 2.5 hours.

GSNOR [4] = molecular target: T1, GSNOR; experiment: GSNOR inhibition at pH 10 (octanol, NAD+); format: biochemical; design: made in house; host or cells: E. coli; details: pH 10 versus pH 7.5
Procedure: Referring now to Table 1, inhibition was studied at pH 10. These assays were performed in 0.1 M sodium glycine containing 1 mM octanol, 1 mM NAD^+, 0.1 mM EDTA and 50 μM inhibitor. Inhibition studies at pH 7.5 were performed in 50 mM potassium phosphate pH 7.5 that included 15 μM NADH, 10 μM GSNO, 0.1 mM EDTA and 50 μM inhibitor. The data file to a model consisted with partial inhibition and a hill coefficient of 2.4 in the inhibition curve. The screening for GSNOR inhibitors was performed using a library of 60,000 compounds from ChemDiv Inc in the Chemical Genomics Core facility at Indiana University. Screening was conducted in 384 well plates and involved incubating GSNOR with 12.5 μM compound, 1 mM each of NAD^+ and octanol in 0.1 M sodium glycine pH 10. Enzyme activity was determined by measuring the rate of production of NADH spectrophotometrically at 340 nm. Inhibition of GSNOR was calculated from the ratio of enzyme activity in the presence of compounds to that in no compound controls performed on the same assay plate. Following their identification from the high-throughput screening, the GSNOR inhibitory properties of the initial hits were confirmed at the pH 10 using 12-hydroxydodecanoic acid as the substrate and at pH 7.5 using GSNO as the substrate (see the brief description of Table 1 for details on how the assay was carried out.)

In the case of N#Cc1ccccc1CSc1nc2ccsc2c(=O)n1Cc1ccc(C(=O)O)cc1 [Compound 8], the “potentiation of the effect of GSNO on cGMP” value (RAW 264.7 cells [1]) is reported as 2.5 fold, the “type of inhibition against varied NADH” value (GSNOR [2]) is reported as “uncompetitive” and the “time of peak effect on nitrosylation of cellular proteins” value (RAW 264.7 cells [3]; 33 μM) is reported as “around 8 hours”. The “time to decrease to normal nitrosylation levels” value (RAW 264.7 cells [3]; 33 μM) was no more than 24 h, the “accumulation of SNOs with simultaneous L-NAME” value (RAW 264.7 cells [3]; 33 μM compound 8 + 1 mM NAME, 4 h) was “less” and the “nitrosylation of cellular proteins” value (RAW 264.7 cells [3]; 33 μM, 0-24 h) was “increased the nitrosylation of cellular proteins with time”. For the same molecule, the “GSNOR inhibition at pH 10 compared with pH 7.5” value (GSNOR [4]) was “higher GSNOR inhibition at pH 10 than at pH 7.5”.
